The source of these data is patent US9580432B2, “Fused pyrimidine compound or salt thereof” (TAIHO PHARMACEUTICAL CO., LTD., priority 2013, dated 2017).

Usually IC50 stands for the point on the concentration scale where inhibition reaches its midpoint.

Where only a bound is given, the exact number is not on record here.

For series [1], the system named is purified recombinant human EGFR protein / BTK. The experiment in a line: BTK inhibition selectivity compared with EGFR kinase inhibitory activity (in vitro). The conditions noted are these: EGFR assay ATP 1.5 μM. Format: biochemical.
Series [2] can be described thus: Influence on body weight of SD rat by repeated administration (in vivo). The settings on record: two weeks; for Relative body weight ratio (%): 750 mg/kg orally once a day, relative to vehicle-administered group. The procedure:
The rats were grouped as follows, with four animals in each group, by a random classification method such that the average body weights of the each groups would be almost uniform (Day 1).
The body weight change (BWC) was used as an index indicating the systemic toxicity caused by drug administration. The BWC was calculated by the following formula. BWC (%)=([(Rat body weight on 14 days after the administration)−(rat body weight at the time of grouping)]/(rat body weight at the time of grouping))×100
The relative body weight change ratios in the each compound-administered groups were calculated by the following formula when the BWC in the vehicle-administered group was set as 1, and the results are indicated in Table 52. Relative body weight change ratio (%)=(BWC in the compound-administered group)/(BWC in the vehicle-administered group)×100

In the next series the test system is A431 cells / TMD8 cells. The experiment in a line: Proliferation inhibitory activity against cell lines expressing BTK and EGFR (in vitro), comparison of selectivity. The settings on record: ratio from GI50 (nM), 3 days culture, CELLTITER GLO. The format is cell-based, human. Summed up:
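BTK-expressing TMD8 DLBCL cells (RPMI1640/10% FBS) and EGFR-overexpressing A431 epidermoid carcinoma cells (DMEM/10% FBS) cultured 1 day, then exposed to compound (0.2% DMSO final) for 3 days at 37° C. Luminescence read-out; inhibition ratio % = (C−T)/(C−C0)×100, with A431/TMD8 ratio as selectivity index.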
(In general: In ATP-based viability assays light output follows the ATP content of the culture.)

Series [3] relates to Human B cell lymphoma-derived cell line TMD8. In words: Antitumor effect, TMD8 subcutaneously transplanted into SCID mice. The format is in vivo. The settings on record: Day 17; 50 mg/kg orally once a day. The source says:
(§1) Human B cell lymphoma-derived cell line TMD8 was subcutaneously transplanted into SCID mice. At the time point when the volume of engrafted tumors reached 100 to 200 mm^3, the mice were divided into groups, with 5 animals in each group, by a random classification method (Day 1) such that the tumor volumes in the various groups would be uniform, and oral administration was initiated. […] In order to compare the antitumor effect caused by the drug administration, the relative tumor volume (RTV), which was the proliferation ratio of tumor when the tumor volume at the time of grouping was set as one, was determined by the following formula. RTV=(Tumor volume on the day of tumor volume measurement)/(tumor volume at the time of grouping)

The nature of series [4]: Body weight change ratio in TMD8-transplanted SCID mice. The format is in vivo. The conditions noted are these: Day 17; 50 mg/kg orally once a day.
Source text: as §1
The body weight change (BWC) was used as an index indicating the systemic toxicity caused by drug administration. BWC (%)=([(mice body weight on the day of weight measurement)−(mice body weight at the time of grouping)]/(mice body weight at the time of grouping))×100 (Mathematical Formula 1)

The target in series [5] is purified recombinant human BTK protein (Homo sapiens (Human), UniProt Q06187). In words: Measurement of BTK inhibitory activity (in vitro). The conditions noted are these: FL-PEPTIDE 2 substrate 1 μM, ATP 45 μM, 40 minutes at 25° C. The format is biochemical. In a few lines:
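Recombinant human BTK with FL-PEPTIDE 2 substrate (1 μM), 45 μM ATP and 10 mM MgCl2 in 20 mM HEPES pH 7.5, 2 mM DTT, 0.01% Triton X-100, 5% DMSO; 40 min at 25° C. Reaction stopped with 30 mM EDTA. Phosphorylated and unphosphorylated peptide separated and detected by microchannel capillary electrophoresis.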

purified recombinant human BTK protein, sequence (Q06187 whole entry): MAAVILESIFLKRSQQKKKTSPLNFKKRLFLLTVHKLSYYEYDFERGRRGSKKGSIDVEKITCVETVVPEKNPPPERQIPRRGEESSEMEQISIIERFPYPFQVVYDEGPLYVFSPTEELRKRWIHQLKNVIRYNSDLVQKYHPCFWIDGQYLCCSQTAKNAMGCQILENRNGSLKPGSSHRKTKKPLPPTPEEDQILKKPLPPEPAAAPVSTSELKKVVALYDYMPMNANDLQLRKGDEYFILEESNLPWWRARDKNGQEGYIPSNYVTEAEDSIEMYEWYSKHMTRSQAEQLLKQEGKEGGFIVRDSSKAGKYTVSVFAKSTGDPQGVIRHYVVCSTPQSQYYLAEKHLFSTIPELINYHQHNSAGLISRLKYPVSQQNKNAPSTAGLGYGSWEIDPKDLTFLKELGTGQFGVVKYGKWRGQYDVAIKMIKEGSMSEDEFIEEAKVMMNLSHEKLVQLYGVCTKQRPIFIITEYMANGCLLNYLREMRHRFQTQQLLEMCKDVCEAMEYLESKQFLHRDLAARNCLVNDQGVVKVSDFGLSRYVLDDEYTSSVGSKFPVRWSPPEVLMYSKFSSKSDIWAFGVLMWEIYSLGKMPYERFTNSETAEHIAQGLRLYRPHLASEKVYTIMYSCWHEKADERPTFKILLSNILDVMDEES

On to `C=CC(=O)N1CCC[C@@H](n2nc(C(=O)Nc3nc4ccccc4o3)c3c(N)ncnc32)C1` [Example 13, (R)-1-(1-acryloylpiperidin-3-yl)-4-amino-N-(benzo[d]oxazol-2-yl)-1H-pyrazolo[3,4-d]pyrimidine-3-carboxamide], for which, in series [1], the “EGFR inhibitory activity IC50 value (nM)/BTK inhibitory activity IC50 value (nM)” value (“EGFR inhibitory activity IC50 value” for short) was determined as 28.8. In series [2], the “Relative body weight ratio (%)” value is given as 79.1%. Also, the “A431 cell proliferation inhibition ratio/TMD8 cell proliferation inhibitio ratio” value with A431 cells / TMD8 cells is reported as 4872.2. The “RTV (relative tumor volume)” value in series [3] is given as 4.24. For the same molecule, the “BWC (body weight change)” value in series [4] is on record as 3.8%. For the same molecule, the IC50 in series [5] is 0.813 nM.
Turning to `C=CC(=O)N1CCC[C@@H](n2nc(C(=O)Nc3nc4cc(F)ccc4o3)c3c(N)ncnc32)C1` [Example 12, (R)-1-(1-acryloylpiperidin-3-yl)-4-amino-N-(5-fluorobenzo[d]oxazol-2-yl)-1H-pyrazolo[3,4-d]pyrimidine-3-carboxamide], in series [1], the “EGFR inhibitory activity IC50 value” value stood at 84.2. Moreover, the “Relative body weight ratio (%)” value in series [2] was 91.2%. Further, the “A431 cell proliferation inhibition ratio/TMD8 cell proliferation inhibitio ratio” value in the series with A431 cells / TMD8 cells is recorded as 3077.4. The “RTV (relative tumor volume)” value in series [3] was 0.13. The “BWC (body weight change)” value in series [4] came to 6.0%. The IC50 in series [5] was 0.433 nM.
Turning to `C=CC(=O)N1CCC[C@@H](n2nc(-c3ccc(Oc4ccccc4)cc3)c3c(N)ncnc32)C1` [Comparative Example Compound 1, (R)-1-(3-(4-amino-3-(4-phenoxyphenyl)-1H-pyrazolo[3,4-d]pyrimidin-1-yl)piperidin-1-yl)prop-2-en-1-one, reference compound], in series [2] (280 mg/kg orally once a day), the “individuals suffering from loose bowel” value is recorded as “individuals suffering from loose bowel were recognized” and the “width of rat body weight increase compared with the vehicle-administered group” value is “very small”.
For `Nc1ncnc2c1c(C(=O)Nc1nc3cc(Cl)ccc3o1)cn2[C@@H]1CCN(C(=O)/C=C/CN2CCCC2)C1` [Example 53, (R,E)-4-amino-N-(5-chlorobenzo[d]oxazol-2-yl)-7-(1-(4-(pyrrolidin-1-yl)but-2-enoyl)pyrrolidin-3-yl) 7H-pyrrolo[2,3-d]pyrimidine-5-carboxamide], the “EGFR inhibitory activity IC50 value” value in series [1] turned out to be 25.5. In the series with A431 cells / TMD8 cells, the “A431 cell proliferation inhibition ratio/TMD8 cell proliferation inhibitio ratio” value is above 1535.4. Moreover, the IC50 in series [5] is 1.68 nM.
`C=CC(=O)N1CC[C@@H](n2nc(C(=O)Nc3nc4cc(CCOC)ccc4o3)c3c(N)ncnc32)C1` [Example 40, (R)-1-(1-acryloylpyrrolidin-3-yl)-4-amino-N-(5-(2-methoxyethyl)benzo[d]oxazol-2-yl)-1H-pyrazolo[3,4-d]pyrimidine-3-carboxamide]: the “EGFR inhibitory activity IC50 value” value in series [1] came to 10.0. Besides, the “A431 cell proliferation inhibition ratio/TMD8 cell proliferation inhibitio ratio” value in the series with A431 cells / TMD8 cells is above 3159.6. For the same molecule, in series [5], the IC50 is 2.09 nM.
On to `Nc1ncnc2c1c(C(=O)Nc1nc3cc(Cl)ccc3o1)cn2[C@@H]1CCN(C(=O)/C=C/CN2CCCCC2)C1` [Example 54, (R,E)-4-amino-N-(5-chlorobenzo[d]oxazol-2-yl)-7-(1-(4-(piperidin-1-yl)but-2-enoyl)pyrrolidin-3-yl) 7H-pyrrolo[2,3-d]pyrimidine-5-carboxamide], for which the “EGFR inhibitory activity IC50 value” value in series [1] was found to be 37.1. Further, in the series with A431 cells / TMD8 cells, the “A431 cell proliferation inhibition ratio/TMD8 cell proliferation inhibitio ratio” value is on record as above 2675.9. Moreover, the 50% inhibitory concentration (IC50) in series [5] is 1.44 nM.
The corresponding values for `C/C=C/C(=O)N1CC[C@@H](n2nc(C(=O)Nc3nc4cc(Cl)ccc4o3)c3c(N)ncnc32)C1` [Example 25, (R,E)-4-amino-N-(5-chlorobenzo[d]oxazol-2-yl)-1-(1-(but-2-enoyl)pyrrolidin-3-yl)-1H-pyrazolo[3,4-d]pyrimidine-3-carboxamide] are 173.7, 2793.0 and 1.17 nM.
Take `CN(C)C/C=C/C(=O)N1CC[C@@H](n2nc(C(=O)Nc3nc4cc(-c5ccccc5)ccc4o3)c3c(N)ncnc32)C1` [Example 42, (R,E)-4-amino-N-(5-phenylbenzo[d]oxazol-2-yl)-1-(1-(4-(dimethylamino)but-2-enoyl)pyrrolidin-3-yl)-1H-pyrazolo[3,4-d]pyrimidine-3-carboxamide]: in series [1], the “EGFR inhibitory activity IC50 value” value amounted to 19.4. In the series on A431 cells / TMD8 cells, the “A431 cell proliferation inhibition ratio/TMD8 cell proliferation inhibitio ratio” value stood at 3934.1. Also, in series [5], the IC50 is 0.771 nM.
Consider `CCN(CC)C/C=C/C(=O)N1CC[C@@H](n2nc(C(=O)Nc3nc4cc(Cl)ccc4o3)c3c(N)ncnc32)C1` [Example 34, (R,E)-4-amino-N-(5-chlorobenzo[d]oxazol-2-yl)-1-(1-(4-(diethylamino)but-2-enoyl)pyrrolidin-3-yl)-1H-pyrazolo[3,4-d]pyrimidine-3-carboxamide], for which the “EGFR inhibitory activity IC50 value” value in series [1] worked out at 79.3. The “A431 cell proliferation inhibition ratio/TMD8 cell proliferation inhibitio ratio” value with A431 cells / TMD8 cells is above 22471.9. Moreover, the concentration for half-maximal inhibition (IC50) in series [5] was 0.79 nM.
As to `Nc1ncnc2c1c(C(=O)Nc1nc3cc(Cl)ccc3o1)nn2[C@@H]1CCCN(C(=O)/C=C/CN2CCCCC2)C1` [Example 20, (R,E)-4-amino-N-(5-chlorobenzo[d]oxazol-2-yl)-1-(1-(4-(piperidin-1-yl)but-2-enoyl)piperidin-3-yl)-1H-pyrazolo[3,4-d]pyrimidine-3-carboxamide], the “EGFR inhibitory activity IC50 value” value in series [1] came out at 138.2. In addition, the “A431 cell proliferation inhibition ratio/TMD8 cell proliferation inhibitio ratio” value in the series with A431 cells / TMD8 cells is reported as above 19120.5. Also, in series [5], the half-inhibitory concentration (IC50) came to 0.801 nM.
